Reference: patent US20150209335A1, “METHODS AND SMALL MOLECULE THERAPEUTICS COMPRISING FUSED ELPS” (UNIVERSITY OF SOUTHERN CALIFORNIA, priority 2012, published 2015)

Columns and labels:
[1] = in vivo; cited from earlier work
[2] = system: lymphocytic infiltration of the lacrimal gland; test: lymphocytic infiltration of the lacrimal gland in male NOD mice (autoimmune dacryoadenitis); format: in vivo, mouse; conditions: 12 week old male NOD mice, tail vein, one week of treatment
Source text: The bottom panel is image analysis that was used to quantify % of tissue section containing lymphocyte foci. *p=0.003, **P=5×10·5, ***P=0.01, ****P=0.0009.

[3] = system: interferon gamma (IFN gamma); test: interferon gamma expression in NOD mouse lacrimal gland, real time RT-PCR; format: in vivo; conditions: NOD mice, 7-day treatment period
Source text: Quantitation was achieved using real time RT-PCR. Expression of IFN-gamma was quantified after a 7-day treatment period with PBS, Free Rapa, and FSI Rapa.

[4] = toxicity and body weight in the MDA-MB-468 xenograft mouse study; conditions: after first 2 doses, dosed 3 times a week
Source text: 3 times a week. […] Therefore, the dose was reduced to only once a week.

[5] = system: MDA-MB-468 rapamycin sensitive breast cancer cell line; test: MTS cell viability assay, MDA-MB-468; format: cell-based; conditions: MDA-MB-468 cell assay
Method: Each mouse was injected with 3×10^6 MDA-MB-468 cells s.c. in mammary fat pads. […] 3 times a week. […] Therefore, the dose was reduced to only once a week.

[6] = dynamic light scattering (DLS) size of ELP nanoparticles; format: physicochemical; conditions: concentration of 25 uM
Source text: ELP diblock copolymers with hydrophobic and hydrophilic guest residues at opposite ends of the polymer (e.g. (Val-Pro-Gly-Ile-Gly) 48(Val-Pro-Gly-Ser-Gly)48 (SEQ ID NO: 12) called I48S48) can form nanoparticles. A class of ELP block copolymers with hydrophobic block:hydrophilic block=1:1 have been confirmed to form different sizes of stable nanoparticles. For instances, (Val-Pro-Gly-Ile-Gly)48(Val-Pro-Gly-Ser-Gly)48 (SEQ ID NO: 12) short name: 148S48; (Val-Pro-Gly- Phe-Gly)24(Val-Pro-Gly-Ser-Gly)24 (SEQ ID NO: 13)) short name F24S24. Dynamic light scattering (DLS) can be applied to measure the size of ELP nanoparticles. At concentration of 25 uM, ELP block copolymer 148S48 forms 24 nm in radius nanoparticles; however, F24S24 forms nanoparticles with 15 nm hydrodynamic radius. In order to actually observe the morphology of ELP nanoparticles, transmission electron microscopy (TEM) and cryo-transmission electron microscopy (Cryo-TEM) can be applied. In TEM, 1% of Uranyl acetate solution is used to negatively stain ELP nanoparticles. Therefore, ELP nanoparticles are expected to be observed as hollow spheres. Different from TEM in which ELP samples are loaded on a grid and dry at room temperature. Cryo-TEM studies ELP samples at cryogenic temperatures, generally liquid nitrogen temperatures. […]

[7] = Rapa encapsulation and release from ELP nanoparticles, dialysis under sink conditions, RP-HPLC; format: physicochemical; conditions: preliminary experiments
Method: Dialysis under sink conditions was used track the loss of Rapa from the nanoparticles. Mean±SD (n=3).
A two phase method was developed to encapsulate Rapa into the ELP nanoparticles. An aqueous phase PBS containing S48I48 or FKBP-S48I48 was mixed with an organic phase hexane/EtOH containing Rapa in a small glass vial. The vial was kept stirred and heated up to the CMT of S48I48 or FKBP-S48I48. A nitrogen flow was applied to facilitate the evaporation of the hexane/EtOH phase. A 13.2K 10 min centrifugation was performed to remove the insoluble Rapa after the organic phase evaporated out. 100 μL of the sample was filtered and injected into a C-18 reverse phase HPLC column to analyze the amount of the Rapa that was initially encapsulated. Rapa releasing experiment was performed under a sink condition of H2O dialysis. Samples were collected in the dialysis cassette at time points of 0 h, 1 h, 2 h, 4 h, 6 h, 9 h, 19.5 h, 27 h, 31 h and 48 h. RP-HPLC was used to determine the amount of Rapa that was retained inside the ELP nanoparticle core.

Molecule	bioavailability of the plain drug [1]	lymphocytic infiltration (lymphocyte foci) of lacrimal gland [2]	IFN gamma expression in lacrimal gland [3]	body weight lost [4]	rapamycin dose (concentration) that could be reached [5]	nanoparticle hydrodynamic radius [6] [nm]	rapamycin encapsulation into plain ELP nanoparticles [7]
CO[C@H]1C[C@@H]2CC[C@@H](C)[C@@](O)(O2)C(=O)C(=O)N2CCCC[C@H]2C(=O)O[C@H]([C@H](C)C[C@@H]2CC[C@@H](O)[C@H](OC)C2)CC(=O)[C@H](C)/C=C(\C)[C@@H](O)[C@@H](OC)C(=O)[C@H](C)C[C@H](C)/C=C/C=C/C=C/1C [rapamycin, (3S,6R,7E,9R,10R,12R,14S,15E,17E,19E,21S,23S,26R,27R,34aS)-9,10,12,13,14,21,22,23,24,25,26,27,32,33,34,34a-hexadecahydro-9,27-dihydroxy-3-[(1R)-2-[(1S,3R,4R)-4-hydroxy-3-methoxycyclohexyl]-1-methylethyl]-10,21-dimethoxy-6,8,12,14,20,26-hexamethyl-23,27-epoxy-3H-pyrido[2,1-c][1,4]-oxaazacyclohentriacontine-1,5,11,28,29 (4H,6H,31H)-pentone]	less than 20%	less lymphocyte invasion	sizeable reduction	about 10%	could not reach such a high rapamycin concentration	–	–
F24S24: ELP diblock copolymer (Val-Pro-Gly-Phe-Gly)24(Val-Pro-Gly-Ser-Gly)24 (SEQ ID NO: 13), forms nanoparticles (protein) VPGFGVPGFGVPGFGVPGFGVPGFGVPGFGVPGFGVPGFGVPGFGVPGFGVPGFGVPGFGVPGFGVPGFGVPGFGVPGFGVPGFGVPGFGVPGFGVPGFGVPGFGVPGFGVPGFGVPGFGVPGSGVPGSGVPGSGVPGSGVPGSGVPGSGVPGSGVPGSGVPGSGVPGSGVPGSGVPGSGVPGSGVPGSGVPGSGVPGSGVPGSGVPGSGVPGSGVPGSGVPGSGVPGSGVPGSGVPGSG	–	–	–	–	–	15	efficiently encapsulated
I48S48: ELP diblock copolymer (Val-Pro-Gly-Ile-Gly)48(Val-Pro-Gly-Ser-Gly)48 (SEQ ID NO: 12), forms nanoparticles (protein) VPGIGVPGIGVPGIGVPGIGVPGIGVPGIGVPGIGVPGIGVPGIGVPGIGVPGIGVPGIGVPGIGVPGIGVPGIGVPGIGVPGIGVPGIGVPGIGVPGIGVPGIGVPGIGVPGIGVPGIGVPGIGVPGIGVPGIGVPGIGVPGIGVPGIGVPGIGVPGIGVPGIGVPGIGVPGIGVPGIGVPGIGVPGIGVPGIGVPGIGVPGIGVPGIGVPGIGVPGIGVPGIGVPGIGVPGIGVPGIGVPGSGVPGSGVPGSGVPGSGVPGSGVPGSGVPGSGVPGSGVPGSGVPGSGVPGSGVPGSGVPGSGVPGSGVPGSGVPGSGVPGSGVPGSGVPGSGVPGSGVPGSGVPGSGVPGSGVPGSGVPGSGVPGSGVPGSGVPGSGVPGSGVPGSGVPGSGVPGSGVPGSGVPGSGVPGSGVPGSGVPGSGVPGSGVPGSGVPGSGVPGSGVPGSGVPGSGVPGSGVPGSGVPGSGVPGSGVPGSG	–	–	–	–	–	24	efficiently encapsulated
